Laboratory results published in patent publication US10577363B2, “Substituted piperidine compounds” (EPIZYME, INC., priority 2014, dated 2020).

What follows are compounds tested against SMYD3 (Homo sapiens (Human), UniProt Q9H7B4) (assay: SMYD3 biochemical assay (SPA, 3H-SAM methylation of MEKK2 protein substrate)). Conditions: Table 1A; IC50 values are an average of n = 1 to n = 50; read-out: SMYD3 Biochem IC50.
Outline: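 Enzyme: untagged full-length human SMYD3 from E. coli; substrate GST-tagged MEKK2 from insect cells. Buffer 25 mM Tris-Cl pH 8.0, 1 mM TCEP, 0.005% BSG/Tween 20. 30 min compound–enzyme preincubation at RT; 3H-SAM/MEKK2 start; stop with cold SAM (100 uM final); SPA readout in cpm.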

IC50 | Compound
0.487 µM | C[C@@H]1C[C@@H](NC(=O)c2cc(C3CC3)on2)CCN1S(=O)(=O)c1ccnc(N(C)CCN)c1 [compound 512, N-((2R,4S)-1-((2-((2-aminoethyl)(methyl)amino)pyridin-4-yl)sulfonyl)-2-methylpiperidin-4-yl)-5-cyclopropylisoxazole-3-carboxamide]

Same assay, conditions: average of n = 1 to n = 50; read-out: SMYD3 Biochem IC50

Compound | IC50
Cc1ccc(S(=O)(=O)N2C3CCC[C@@H]2C[C@@H](NC(=O)c2cc(C4CC4)on2)C3)nc1 [compound 763, 5-cyclopropyl-N-((1R,3S)-9-((5-methylpyridin-2-yl)sulfonyl)-9-azabicyclo[3.3.1]nonan-3-yl)isoxazole-3-carboxamide] | 0.77 µM

Same assay, conditions: read-out: SMYD3 Biochem IC50 (μM)*

Compound | IC50
NC[C@H](Cc1ccc(O)c(C(F)(F)F)c1)C(=O)N1CCC(NC(=O)c2cc(C3CC3)on2)CC1 [compound 111, (S)-N-(1-(3-amino-2-(4-hydroxy-3-(trifluoromethyl)benzyl)propanoyl)piperidin-4-yl)-5-cyclopropylisoxazole-3-carboxamide] | 2.47 µM
C[C@@H]1CC(NC(=O)c2cc(C3CC3)on2)CCN1C(=O)[C@H]1CCC[C@@H](N)C1 (stereo partly drawn) [compound 143, N-((2R)-1-((1S,3R)-3-aminocyclohexane-1-carbonyl)-2-methylpiperidin-4-yl)-5-cyclopropylisoxazole-3-carboxamide] | 1.99 µM
C[C@@H]1C[C@@H](NC(=O)c2cc(C3CC3)on2)CCN1C(=O)[C@H]1CC[C@H](N)CC1 [compound 58, N-((2R,4S)-1-((1r,4R)-4-aminocyclohexane-1-carbonyl)-2-methylpiperidin-4-yl)-5-cyclopropylisoxazole-3-carboxamide] | 1.4 µM
C[C@@H]1CC(NC(=O)c2cc(C3CC3)on2)CCN1C(=O)[C@@H]1CC[C@@H](N)C1 (stereo partly drawn) [compound 95, N-((2R)-1-((1R,3R)-3-aminocyclopentane-1-carbonyl)-2-methylpiperidin-4-yl)-5-cyclopropylisoxazole-3-carboxamide] | 0.532 µM
C[C@H]1CC(NC(=O)c2cc(C3CC3)on2)CCN1C(=O)CCN1CCCC1 (stereo partly drawn) [compound 69, 5-cyclopropyl-N-((2S)-2-methyl-1-(3-(pyrrolidin-1-yl)propanoyl)piperidin-4-yl)isoxazole-3-carboxamide] | 12.4 µM
COCCNc1ccc(S(=O)(=O)N2CC[C@H](NC(=O)c3cc(C4CC4)on3)C[C@H]2C)cn1 [compound 456, 5-cyclopropyl-N-((2R,4S)-1-((6-((2-methoxyethyl)amino)pyridin-3-yl)sulfonyl)-2-methylpiperidin-4-yl)isoxazole-3-carboxamide] | > 10 µM
N[C@H]1CC[C@H](C(=O)N2CCC(NC(=O)c3cc(C4CC4)on3)CC2Cc2ccccc2)CC1 (stereo partly drawn) [compound 108, N-(1-((1r,4r)-4-aminocyclohexane-1-carbonyl)-2-benzylpiperidin-4-yl)-5-cyclopropylisoxazole-3-carboxamide] | 1.42 µM
O=C(NC1CCN(C(=O)CC2CCNCC2)CC1(F)F)c1cc(C2CC2)on1 (stereo not drawn) [compound 154, 5-cyclopropyl-N-(3,3-difluoro-1-(2-(piperidin-4-yl)acetyl)piperidin-4-yl)isoxazole-3-carboxamide] | 1.56 µM
C[C@@H]1CC(NC(=O)c2cc(C3CC3)on2)CCN1C(=O)C(C)(C)C1CCNCC1 (stereo partly drawn) [compound 164, 5-cyclopropyl-N-((2R)-2-methyl-1-(2-methyl-2-(piperidin-4-yl)propanoyl)piperidin-4-yl)isoxazole-3-carboxamide] | 5.91 µM
O=C(N[C@H]1C[C@H]2CC[C@@H](C1)N2C(=O)CC1CCNCC1)c1cc(C2CC2)on1 [compound 127, 5-cyclopropyl-N-((1R,3r,5S)-8-(2-(piperidin-4-yl)acetyl)-8-azabicyclo[3.2.1]octan-3-yl)isoxazole-3-carboxamide] | 1.28 µM
C[C@@H]1CC(NC(=O)c2cc(C3CC3)on2)CCN1C(=O)CC(C)(C)CN (stereo partly drawn) [compound 104, N-((2R)-1-(4-amino-3,3-dimethylbutanoyl)-2-methylpiperidin-4-yl)-5-cyclopropylisoxazole-3-carboxamide] | 0.566 µM
CNc1ccc(S(=O)(=O)N2CC[C@@H](NC(=O)c3cc(C4CC4)on3)C[C@@H]2C)cn1 [compound 448, 5-cyclopropyl-N-((2S,4R)-2-methyl-1-((6-(methylamino)pyridin-3-yl)sulfonyl)piperidin-4-yl)isoxazole-3-carboxamide] | > 10 µM
N[C@H]1C[C@H](C(=O)N2CCC(NC(=O)c3cc(C4CC4)on3)CC2)C1 [compound 20, N-(1-((1r,3r)-3-aminocyclobutane-1-carbonyl)piperidin-4-yl)-5-cyclopropylisoxazole-3-carboxamide] | 5.77 µM
C[C@@H]1C[C@@H](NC(=O)c2cc(C3CC3)on2)CCN1C(=O)CC1CCNCC1 [compound 53, 5-cyclopropyl-N-((2R,4S)-2-methyl-1-(2-(piperidin-4-yl)acetyl)piperidin-4-yl)isoxazole-3-carboxamide] | 0.862 µM
CCOC(=O)C1CN(C(=O)CC2CCNCC2)CCC1NC(=O)c1cc(C2CC2)on1 (stereo not drawn) [compound 119, ethyl 4-(5-cyclopropylisoxazole-3-carboxamido)-1-(2-(piperidin-4-yl)acetyl)piperidine-3-carboxylate] | 2.99 µM
C[C@H]1C[C@@H](NC(=O)c2cc(C3CC3)on2)CCN1C(=O)CC1CCNCC1 [compound 54, 5-cyclopropyl-N-((2S,4S)-2-methyl-1-(2-(piperidin-4-yl)acetyl)piperidin-4-yl)isoxazole-3-carboxamide] | 2.08 µM
N[C@H]1CC[C@H](C(=O)N2CCC(NC(=O)c3cc(C4CC4)on3)CC2)CC1 [compound 13, N-(1-((1r,4R)-4-aminocyclohexane-1-carbonyl)piperidin-4-yl)-5-cyclopropylisoxazole-3-carboxamide] | 1.29 µM
C[C@H](N)CC(=O)NC[C@@H](Cc1ccc(O)c(I)c1)C(=O)N1CCC(NC(=O)c2cc(C3CC3)on2)CC1 [compound 32, N-(1-((R)-3-((S)-3-aminobutanamido)-2-(4-hydroxy-3-iodobenzyl)propanoyl)piperidin-4-yl)-5-cyclopropylisoxazole-3-carboxamide] | 4.11 µM

Results, then the compound that gave them:

IC50 | Compound
> 10 µM | CCCS(=O)(=O)N1CC[C@@H](NC(=O)c2cc(C3CC3)on2)C[C@H]1C [compound 249, 5-cyclopropyl-N-((2R,4R)-2-methyl-1-(propylsulfonyl)piperidin-4-yl)isoxazole-3-carboxamide]
0.1 µM | C[C@@H]1C[C@@H](NC(=O)c2cc(C3CC3)on2)CCN1S(=O)(=O)CCCN [compound 209, N-((2R,4S)-1-((3-aminopropyl)sulfonyl)-2-methylpiperidin-4-yl)-5-cyclopropylisoxazole-3-carboxamide]
> 10 µM | COCCCS(=O)(=O)N1CC[C@@H](NC(=O)c2cc(C3CC3)on2)C[C@@H]1C [compound 327, 5-cyclopropyl-N-((2S,4R)-1-((3-methoxypropyl)sulfonyl)-2-methylpiperidin-4-yl)isoxazole-3-carboxamide]
> 10 µM | C[C@@H]1C[C@H](NC(=O)c2cc(C3CC3)on2)CCN1S(=O)(=O)c1ccc(Cl)nc1 [compound 253, N-((2R,4R)-1-((6-chloropyridin-3-yl)sulfonyl)-2-methylpiperidin-4-yl)-5-cyclopropylisoxazole-3-carboxamide]
> 10 µM | CCS(=O)(=O)N1CC[C@@H](NC(=O)c2cc(C3CC3)on2)C[C@@H]1C [compound 262, 5-cyclopropyl-N-((2S,4R)-1-(ethylsulfonyl)-2-methylpiperidin-4-yl)isoxazole-3-carboxamide]
4.31 µM | C[C@@H]1C[C@@H](NC(=O)c2cc(C3CC3)on2)CCN1S(=O)(=O)Cc1ccccc1 [compound 185, N-((2R,4S)-1-(benzylsulfonyl)-2-methylpiperidin-4-yl)-5-cyclopropylisoxazole-3-carboxamide]
> 10 µM | COCCS(=O)(=O)N1CC[C@H](NC(=O)c2cc(C3CC3)on2)C[C@H]1C [compound 215, 5-cyclopropyl-N-((2R,4S)-1-((2-methoxyethyl)sulfonyl)-2-methylpiperidin-4-yl)isoxazole-3-carboxamide]
2.53 µM | CC1CN(C(=O)CCCN)CC(C)C1NC(=O)c1cc(C2CC2)on1 (stereo not drawn) [compound 332, N-(1-(4-aminobutanoyl)-3,5-dimethylpiperidin-4-yl)-5-cyclopropylisoxazole-3-carboxamide]
> 10 µM | C[C@@H]1CN(C(=O)CCCN)CC[C@H]1NC(=O)c1cc(C2CC2)on1 [compound 195, N-((3R,4R)-1-(4-aminobutanoyl)-3-methylpiperidin-4-yl)-5-cyclopropylisoxazole-3-carboxamide]
1.83 µM | O=C(N[C@H]1CCN(C(=O)CC2CCNCC2)[C@H](Cc2ccccc2)C1)c1cc(C2CC2)on1 [compound 375, N-((2R,4S)-2-benzyl-1-(2-(piperidin-4-yl)acetyl)piperidin-4-yl)-5-cyclopropylisoxazole-3-carboxamide]
> 10 µM | C[C@@H]1C[C@@H](NC(=O)c2cc(C3CC3)on2)CCN1C(=O)c1ccc2[nH]cnc2c1 [compound 425, N-((2R,4S)-1-(1H-benzo[d]imidazole-5-carbonyl)-2-methylpiperidin-4-yl)-5-cyclopropylisoxazole-3-carboxamide]
> 10 µM | NCCCC(=O)N1CCC(NC(=O)c2cc(C3CC3)on2)C(F)(F)C1 (stereo not drawn) [compound 197, N-(1-(4-aminobutanoyl)-3,3-difluoropiperidin-4-yl)-5-cyclopropylisoxazole-3-carboxamide]

Same assay, conditions: read-out: SMYD3 Biochem IC50*

Compound | IC50
O=C(N[C@H]1C[C@H]2CC[C@@H](C1)N2S(=O)(=O)N1CCNCC1Cc1ccccc1)c1cc(C2CC2)on1 (stereo partly drawn) [compound 940, N-((1R,3r,5S)-8-((2-benzylpiperazin-1-yl)sulfonyl)-8-azabicyclo[3.2.1]octan-3-yl)-5-cyclopropylisoxazole-3-carboxamide] | 0.0475 µM
